# Reference: patent publication US20230270809A1, “VETERINARY COMPOSITIONS FOR THE TREATMENT AND/OR PREVENTION OF PROTOZOAN DISEASES AND METHODS OF PREPARATION THEREOF” (ADIFEED SP. Z O. O., priority 2020, published 2023)
# pIC50: −log10 of the molar value.
# Columns and labels:
# Trypanosoma cruzi = details: read-out: inhibitory effect on 50% of the population (IC50), Becco et al. 2012; cited from earlier work
# [1] = tested on: Trypanosoma cruzi and Leishmania chagasi; details: Escobar et al. 2010; cited from earlier work
# Euglena gracilis = experiment: in vitro protozoicidal test on Euglena gracilis (watch glass, microscope); type: cell-based; details: concentration giving death of 100% of individuals within 3 minutes, in aqueous polysorbate 80 (0.05%)
# Paramecium caudatum = experiment: in vitro protozoicidal test on Paramecium caudatum (watch glass, microscope); type: cell-based; details: concentration giving death of 100% of individuals within 3 minutes, in aqueous polysorbate 80 (0.05%)
# Trichomonas hominis = experiment: in vitro protozoicidal test on Trichomonas hominis (watch glass, microscope); type: cell-based; details: in aqueous polysorbate 80 (0.05%); for LD100: concentration giving death of 100% of individuals within 3 minutes
# Gregarina blattarum = experiment: in vitro protozoicidal test on gregarines isolated from cockroaches; type: cell-based; details: Ringer's solution; for LD100: lethal concentration for 100% of individuals within 3 minutes
# Excerpt: For in vitro tests of antiprotozoal activity of the composition five reference organisms representing taxonomic groups to which pathogenic protozoa belong were selected, i.e: • Amoeba proteus—Chaos diffluens—a protozoan of the order Euamoebida, belonging to fifth supergroup of the Amoebozoa, living in waters. • Paramecium caudatum—a slipper animalcule representing the Ciliata orachs, living in waters. • Gregarina blattarum—gregarine isolated from cockroaches, representing the phylum Apicomplexa, living in the digestive tracts or body cavities of invertebrates. • Euglena gracilis—a protozoan living in water, representing the flagellates—Mastigophora, family Euglenaceae. • Trichomonas hominis—a protozoan living in the human colon, representing the Trichomonadidae.
# The gregarines were isolated from the cockroaches and, after being placed on a watch slide, were treated with the products at different concentrations in Ringer's solution. Each sample contained ten individuals.
# The compositions, negative controls, and positive controls were dissolved in an aqueous solution of polysorbate 80 (0.05%) before application to a watch slide.
# Compositions I and II were then analysed for their antiprotozoal properties. […]
# Individual acids, catalyst solution, essential oil and metal salt solutions were also analysed for protozoal properties. […] Observation under a fluorescence microscope with phase contrast was carried out.
# Amoeba proteus = experiment: in vitro protozoicidal test on Amoeba proteus (watch glass, microscope); type: cell-based; details: in aqueous polysorbate 80 (0.05%); for LD100: concentration giving death of 100% of individuals within 3 minutes
# [2] = concentration giving death of 50% of individuals within 3 minutes
Compound,pIC50 (Trypanosoma cruzi),IC50 [1] [µg/mL],LD100 (Euglena gracilis) [%],LD100 (Paramecium caudatum) [%],LD100 (Trichomonas hominis) [%],LD100 (Gregarina blattarum) [%],LD100 (Amoeba proteus) [%],LD50 (Gregarina blattarum; lethal concentration for 50% of individuals within 3 minutes) [%],LD50 (Amoeba proteus; [2]) [%],LD50 (Trichomonas hominis; [2]) [%]
CC1CS(=O)(=O)CCN1/N=C/c1ccc([N+](=O)[O-])o1 (stereo not shown) [Nifurtimox],5.22,0.3 to 0.4,–,–,–,–,–,–,–,–
copper carbonate [Copper carbonate solution],–,–,0.25,0.5,0.3,–,–,–,–,–
zinc carbonate [Zinc carbonate solution],–,–,0.3,0.5,0.4,0.4,0.25,–,–,–
"Cc1ncc([N+](=O)[O-])n1CCO [M, metronidazole, reference compound]",–,–,–,–,0.1,0.3,0.5,0.13,0.3,0.05
